The text below walks through data of ChEMBL document CHEMBL1148640, “Biological evaluation, chelation, and molecular modeling studies of novel metal-chelating inhibitors of NF-kappaB-DNA binding: structure activity relationships” (J Med Chem, 2006).

In this experiment the test system is Radical scavenging activity. Put plainly: Inhibition of superoxide radical scavenging activity. Type of experiment: functional.
For the compound `O=c1c(Br)cc2c(-c3ccccc3S(=O)(=O)O)c3cc(Br)c(O)c(O)c3oc-2c1O` [BROMOPYROGALLOL RED], the IC50 turned out to be 51.5 µM. The same measure for `CC1=C/C(=C(/c2cc(C)c(O)c(C(=O)O)c2)c2c(Cl)ccc(S(=O)(=O)O)c2Cl)C=C(C(=O)O)C1=O` [CHROME AZUROL S]: > 250 µM. Consider `CC1=C/C(=C(/c2cc(C)c(O)c(C(=O)O)c2)c2ccccc2S(=O)(=O)O)C=C(C(=O)O)C1=O` [ERIOCHROME CYANINE R], for which the IC50 is > 250 µM. The same measure for `O=C1C=C/C(=C(/c2ccc(O)c(O)c2)c2ccccc2S(=O)(=O)O)C=C1O` [PYROCATECHOL VIOLET]: 120 µM; for `O=c1ccc2c(-c3ccccc3S(=O)(=O)O)c3ccc(O)c(O)c3oc-2c1O` [PYROGALLOL RED]: 88 µM.

Broadly, the IC50 is the concentration that inhibits the measured activity by half.
